Data reported in paper PMC12040169 (PLOS Biology, 2025).

Assay: in vitro
Conditions: human, hela cells, % viability

SMILES	viability at 28.5 h, 10 µM [%]	viability at 28.5 h, 10 µM (bulk resorufin, single well) [%]
O=C1C2C3C=CC(C2C(=O)N1CCO)C1C2C(=O)N(CCO)C(=O)C2C31 (stereo not drawn) [CBK263016]	101	–
CCC(Sc1nc(C)cc(C)n1)C(=O)N1c2ccccc2Sc2ccccc21 (stereo not drawn) [CBK263018]	92.9	–
O=C(c1cccnc1)N1CCN(Cc2cccc([N+](=O)[O-])c2)CC1 [CBK263020]	114	–
CC(=O)C12c3ccccc3C(c3ccccc31)C1C(=O)N(c3ccc(Cl)c(C(=O)O)c3)C(=O)C12 (stereo not drawn) [CBK263021]	93.8	–
CCC12CN3CCN(CC(C3)/C1=N\O)C2 [CBK263022]	85.9	–
O=C(O)c1cc2nc3c(c(C(F)(F)F)n2n1)CCc1ccccc1-3 [CBK263025]	102	–
O=C(c1cccnc1)N1CCN(Cc2ccc([N+](=O)[O-])cc2)CC1 [CBK263026]	93.4	–
CCC(SC1=NCCS1)C(=O)Nc1ccc(S(N)(=O)=O)cc1 (stereo not drawn) [CBK263027]	95.3	–
CN(C)CC1(O)C2CN3CCN(C2)CC1(c1ccccc1)C3 (stereo not drawn) [CBK263029]	97.5	–
O=C(O)c1ccc(N2C(=O)C3C4C=CC(C4=C(c4ccccc4)c4ccccc4)C3C2=O)cc1 (stereo not drawn) [CBK263030]	104	–
COc1ccc(C(=O)N2CCN(Cc3cc(OC)ccc3OC)CC2)cc1 [CBK263032]	88.8	–
CC12CN3CCN(CC(C3)C1(O)CN1CCOCC1)C2 (stereo not drawn) [CBK263033]	103	–
CCOC(=O)c1c(NC(=O)Cn2cnc([N+](=O)[O-])n2)sc2c1CCC2 [CBK263042]	92.5	–
Cc1ccc(-c2nc3ncccc3o2)cc1NC(=O)c1ccc(F)cc1 [CBK263043]	103	–
O=C(NCCCN1CCOCC1)c1cnn2c(-c3ccccc3)cc(-c3ccccc3)nc12 [CBK263046]	79.9	–
CN(C)CCNCCP(=O)(c1ccccc1)c1ccccc1 [CBK263049]	104	–
Cc1c(NC(=O)c2ccc([N+](=O)[O-])o2)cccc1-c1nc2ccccc2s1 [CBK263051]	85.6	–
Cc1ccc(C(=O)Nc2c(C(=O)N3CCN(Cc4ccccc4)CC3)cnn2-c2ccccc2)cc1 [CBK263053]	91.1	–
CCOC(=O)c1c(NC(=O)Cn2nc([N+](=O)[O-])c(Cl)c2C)sc2c1CCC(C)C2 (stereo not drawn) [CBK263054]	94.2	–
Cc1ccc2oc(-c3ccc(C)c(NC(=O)c4cc([N+](=O)[O-])ccc4Cl)c3)nc2c1 [CBK263055]	94.5	–

SMILES	viability at 28.5 h, 10 µM [%]	viability at 28.5 h, 10 µM (bulk resorufin, single well) [%]
Cc1ccc(C(=O)Nc2c(C(=O)Nc3cccnc3)cnn2-c2ccccc2)cc1 [CBK263056]	92.4	–
O=C(Cn1nnc(-c2ccccc2)n1)Nc1cccc([N+](=O)[O-])c1 [CBK263057]	97.9	–
CCOC(=O)c1c(NC(=O)Cn2cnc([N+](=O)[O-])n2)sc2c1CCC(C)C2 (stereo not drawn) [CBK263058]	120	–
CC(Sc1nc2ccccc2[nH]1)C(=O)O (stereo not drawn) [CBK263063]	101	–
S=C(NCCN1CCCCC1)NCc1ccccc1 [CBK263066]	112	–
Nc1nc(N)nc(Cn2c(-c3nonc3N)nc3ccccc32)n1 [CBK263072]	105	–
Cc1c(Nc2nc3nonc3nc2Nc2cccc(Cl)c2)c(=O)n(-c2ccccc2)n1C [CBK263073]	103	–
C=CCNc1nc(NCCN2CCOCC2)nc(N2CCOCC2)n1 [CBK263074]	112	–
O=C(O)CCC(=O)OC1N=C(c2ccccc2Cl)c2cc(Br)ccc2NC1=O (stereo not drawn) [CBK263076]	–	85.2
O=S(=O)(Nc1ccc(N2CCCCC2)cc1)c1cccc2cccnc12 [CBK263077]	93.1	–
O=C(O)C(Cc1ccccc1)N1C(=O)/C(=C/c2cccc([N+](=O)[O-])c2)SC1=S (stereo not drawn) [CBK263078]	98.4	–
O=C(O)c1cccnc1SC1CC(=O)N(c2ccc([N+](=O)[O-])cc2)C1=O (stereo not drawn) [CBK263079]	100	–
N#C/C(=C\c1ccc(-c2cc(Cl)ccc2Cl)o1)C(=O)Nc1cccc2cccnc12 [CBK263082]	110	–
COc1ccc(C(O)c2coc3ccc(O)c(CN(C)C)c23)cc1 (stereo not drawn) [CBK263083]	96.4	–
Cc1ccc(C(=O)c2coc3ccc(OCC(=O)O)cc23)cc1 [CBK263084]	86.6	–
O=C(O)c1ccc(N2C(=O)/C(=C/c3c[nH]c4ccccc34)SC2=S)cc1 [CBK263085]	90.4	–
O=C(Cc1n[nH]c(=O)[nH]c1=O)N/N=C/c1cccc(Br)c1 [CBK263086]	83	–
COCCCNC(NC(=O)c1ccc(C)cc1)C(Cl)(Cl)Cl (stereo not drawn) [CBK263087]	107	–
NS(=O)(=O)c1ccc(CCNC(=O)c2ccc(C#Cc3ccccc3)cc2)cc1 [CBK263089]	95.9	–
CC(C)c1ccc(/C=N/Nc2nc(-c3ccccc3)cs2)cc1 [CBK263091]	94.5	–

SMILES	viability at 28.5 h, 10 µM [%]	viability at 28.5 h, 10 µM (bulk resorufin, single well) [%]
O=C(c1ccc(C#CC2(O)CCCCC2)cc1)N1CCN(Cc2ccccc2)CC1 [CBK263094]	100	–
CCOC(=O)c1cc2c(=O)n3cc(C)ccc3nc2n(Cc2cccnc2)c1=N [CBK263095]	90.5	–
Cc1nc(N/N=C/c2ccc3c(c2)OCO3)sc1C [CBK263098]	106	–
CC(C)(O)C#Cc1ccc(C(=O)N2CCN(Cc3ccccc3)CC2)cc1 [CBK263100]	80.3	–
NC(=O)c1c(NC(=O)CSc2ccc(Cl)cc2)sc2c1CCCC2 [CBK263101]	77.7	–
CCCc1ccc(OCC(=O)Nc2ccccc2C(N)=O)cc1 [CBK263103]	88.7	–
O=C(O)C(Cc1ccccc1)N1C(=O)/C(=C/c2ccc([N+](=O)[O-])cc2)SC1=S (stereo not drawn) [CBK263108]	84.3	–
O=C1NC(=Nc2ccccn2)SC1Cc1ccc(Br)cc1 (stereo not drawn) [CBK263109]	82.3	–
CC(C)(O)C#Cc1ccc(C(=O)NCCc2ccc(S(N)(=O)=O)cc2)cc1 [CBK263110]	98.2	–
Cc1c(Cc2ccccc2)c(N2CCN(C/C=C/c3ccccc3)CC2)n2c(nc3ccccc32)c1C#N [CBK263112]	101	–
Cc1noc(NS(=O)(=O)c2ccc(NC(=O)/C=C/c3ccc(Cl)cc3Cl)cc2)c1C [CBK263115]	90.4	–
O=C(O)COc1ccccc1/C=N/NC(=O)Cc1ccc(Br)c2ccccc12 [CBK263116]	85.6	–
NC(=O)c1ccccc1NC(=O)CCN1C(=O)c2cccc([N+](=O)[O-])c2C1=O [CBK263118]	87.4	–
CCOc1ccc2nc(NC3=NC(CC(=O)O)C(=O)N3)nc(C)c2c1 (stereo not drawn) [CBK263120]	103	–
N#C/C(=C/c1ccc(-c2ccc(S(N)(=O)=O)cc2)o1)C(=O)Nc1ccccc1 [CBK263123]	119	–
O=C1N/C(=N/N=C\c2cccc([N+](=O)[O-])c2)SC1Cc1ccc(Br)cc1 (stereo not drawn) [CBK263125]	101	–
NS(=O)(=O)c1ccc(-c2ccc(/C=C3/SC(=S)N(C4CCCCC4)C3=O)o2)cc1 [CBK263127]	88	–
CN1CCN(c2nc3ccccn3c(=O)c2/C=C2\SC(=S)N(CCc3ccccc3)C2=O)CC1 [CBK263131]	110	–
NC(=O)c1c(NC(=O)CCN2C(=O)c3cccc([N+](=O)[O-])c3C2=O)sc2c1CCCC2 [CBK263132]	105	–
CC1CCCC(C)N1CC(O)COCc1ccc2c(c1)OCO2 (stereo not drawn) [CBK263134C]	86.3	–
